# Test results as given in patent US9085562B2, “6-alkyl-N-(pyridin-2-yl)-4-aryloxypicolinamide analogs as mGluR5 negative allosteric modulators and methods of making and using the same” (Vanderbilt University, priority 2011, dated 2015).
# Molecular target: T1, rat mGluR5 (Rattus norvegicus, UniProt P31424)
# T1 construct: expressed in transfected cells
# Assay: mGluR5 calcium mobilization assay (HEK 293A cells, FDSS)
# Format: cell-based
# Conditions: HEK cells transfected with rat mGluR5; antagonism of glutamate EC80 response; Table 1
# Procedure: Human embryonic kidney (HEK) cells transfected with rat or human mGluR5 were plated in clear bottom assay plates for assay in a Functional Drug Screening System (FDSS). The cells were loaded with a Ca2+-sensitive fluorescent dye (e.g., Fluo-4), and the plates were washed and placed in the FDSS instrument. Test compound was applied to cells 3 seconds after baseline readings were taken. Cells were incubated with the test compounds for 140 seconds and then stimulated with an EC20 concentration of an mGluR5 agonist (e.g., glutamate, 3,5-dihydroxyphenylglycine, or quisqualate); 60-80 seconds later an EC80 concentration of agonist was added and readings taken for an additional 40 seconds. Data were collected at 1 Hz. […] Concentration response curves were generated using a four parameter logistical equation.
# The above described assay was operated in two modes. In the first mode (utilizing a triple add protocol), a range of concentrations of the present compounds were added to cells, followed by two single fixed concentrations of agonist (EC20 followed by EC80). If a compound acted as a potentiator, an EC50 value for potentiation of the EC20 response and a maximum extent of potentiation by the compound at this concentration of agonist was determined by non-linear curve fitting. If a compound acted as an antagonist, an IC50 value for antagonism of the EC80 response and a maximum extent of antagonism by the compound at this concentration of agonist was determined by non-linear curve fitting. In the second mode (utilizing a double add protocol), several fixed concentrations of the present compounds were added to various wells on a plate, followed by a range of concentrations of agonist for each concentration of present compound; the EC50 values for the agonist at each concentration of compound were determined by nonlinear curve fitting. A decrease in the EC50 value of the agonist with increasing concentrations of the present compounds (a leftward shift of the agonist concentration-response curve) is an indication of the degree of mGluR5 positive allosteric modulation at a given concentration of the present compound. An increase in the EC50 value of the agonist with increasing concentrations of the present compounds (a rightward shift of the agonist concentration response curve) is an indication of the degree of mGluR5 antagonism at a given concentration of the present compound. The second mode also indicates whether the present compounds also affect the maximum response to mGluR5 to agonists.
# The mGluR5 activity was determined using the metabotropic glutamate receptor activity assays in human embryonic kidney cells as described herein, wherein the human embryonic kidney cells were transfected with rat mGluR5. The mGluR5 activity data for some compounds are shown as the average of at least three experiments with the standard error in these cases. If no error is indicated for the mGluR5 activity, the values given represent the results from a single experiment or the average of two experiments. The compounds in Table 1 were synthesized with methods identical or analogous to those shown herein. The requisite starting materials were commercially available, described in the literature, or readily synthesized by one skilled in the art of organic synthesis.
# The cells were grown overnight at 37° C. in the presence of 5% CO2. […] Dye was removed, 20 μL of assay buffer was added, and the plate was incubated for 10 minutes at room temperature.
# Ca^2+ flux was measured using the Functional Drug Screening System (FDSS6000, Hamamatsu, Japan). After establishment of a fluorescence baseline for about 3 seconds, the compounds of the present invention were added to the cells, and the response in cells was measured.
# T1 sequence (P31424 21-1171 isoform P31424-2 limits assumed): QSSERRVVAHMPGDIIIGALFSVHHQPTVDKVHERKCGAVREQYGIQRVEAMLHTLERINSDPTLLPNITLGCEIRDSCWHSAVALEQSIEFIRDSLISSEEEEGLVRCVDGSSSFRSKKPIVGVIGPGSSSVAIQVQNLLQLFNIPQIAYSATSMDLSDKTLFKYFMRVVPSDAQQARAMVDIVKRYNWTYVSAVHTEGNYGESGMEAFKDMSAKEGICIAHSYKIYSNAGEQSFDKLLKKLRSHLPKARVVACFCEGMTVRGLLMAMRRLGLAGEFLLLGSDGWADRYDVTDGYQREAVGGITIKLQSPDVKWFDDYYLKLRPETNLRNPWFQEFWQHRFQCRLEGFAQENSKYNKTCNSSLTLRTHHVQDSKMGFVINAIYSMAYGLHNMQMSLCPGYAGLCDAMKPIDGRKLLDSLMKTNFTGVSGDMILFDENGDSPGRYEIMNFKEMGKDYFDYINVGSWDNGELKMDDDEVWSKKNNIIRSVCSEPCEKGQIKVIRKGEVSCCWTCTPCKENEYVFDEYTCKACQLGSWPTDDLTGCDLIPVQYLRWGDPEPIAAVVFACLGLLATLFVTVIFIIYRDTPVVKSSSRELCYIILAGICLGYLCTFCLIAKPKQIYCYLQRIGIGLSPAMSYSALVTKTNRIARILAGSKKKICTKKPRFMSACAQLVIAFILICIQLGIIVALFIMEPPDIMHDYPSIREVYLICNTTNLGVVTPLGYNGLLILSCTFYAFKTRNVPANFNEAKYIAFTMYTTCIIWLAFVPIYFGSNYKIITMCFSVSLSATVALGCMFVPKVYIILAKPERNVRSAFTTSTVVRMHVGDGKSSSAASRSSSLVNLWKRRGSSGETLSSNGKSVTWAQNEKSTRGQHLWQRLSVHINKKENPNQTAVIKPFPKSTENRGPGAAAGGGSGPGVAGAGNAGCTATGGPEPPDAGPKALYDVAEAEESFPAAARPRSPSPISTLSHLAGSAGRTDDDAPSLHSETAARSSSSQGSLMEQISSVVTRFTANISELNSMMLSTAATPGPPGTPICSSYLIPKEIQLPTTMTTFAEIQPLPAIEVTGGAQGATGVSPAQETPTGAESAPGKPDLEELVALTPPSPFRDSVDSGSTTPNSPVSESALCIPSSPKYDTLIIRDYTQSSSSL
row,Structure (SMILES),IC50 [nM]
1,Cc1cc(Oc2cnc(C)nc2)cc(C(=O)Nc2cc(F)ccn2)n1,1890
2,Cc1cccc(NC(=O)c2cc(Oc3cnc(C)nc3)cc(C)n2)n1,20
3,Cc1cc(Oc2cnc(C)nc2)cc(C(=O)Nc2cccc(F)n2)n1,21
4,Cc1cc(Oc2cnc(C)nc2)cc(C(=O)Nc2ccc(Cl)cn2)n1,209
5,Cc1cc(Oc2ccc(C(F)(F)F)nc2)cc(C(=O)Nc2ccc(F)cn2)n1,255
6,Cc1cc(Oc2ccc(C(F)(F)F)nc2)cc(C(=O)Nc2cc(F)ccn2)n1,4880
7,Cc1cccc(NC(=O)c2cc(Oc3ccc(C(F)(F)F)nc3)cc(C)n2)n1,177
8,Cc1cc(Oc2ccc(C(F)(F)F)nc2)cc(C(=O)Nc2cccc(F)n2)n1,397
9,Cc1cc(Oc2ccc(C(F)(F)F)nc2)cc(C(=O)Nc2ccc(Cl)cn2)n1,> 30000
10,Cc1cc(Oc2cncc(C#N)c2)cc(C(=O)Nc2cc(F)ccn2)n1,15
11,Cc1cc(Oc2cncc(C#N)c2)cc(C(=O)Nc2ccc(F)cn2)n1,5.4
12,CCc1cccc(NC(=O)c2cc(Oc3cccnc3)cc(C)n2)n1,13
13,Cc1cc(Oc2cccnc2)cc(C(=O)Nc2ccc(Cl)cn2)n1,5.5
14,Cc1ccc(NC(=O)c2cc(Oc3cccnc3)cc(C)n2)nc1,10
15,CCc1cccc(NC(=O)c2cc(Oc3ccc(C)nc3)cc(C)n2)n1,152
16,Cc1ccc(Oc2cc(C)nc(C(=O)Nc3cc(F)ccn3)c2)cn1,1800
17,Cc1ccc(NC(=O)c2cc(Oc3ccc(C)nc3)cc(C)n2)nc1,966
18,Cc1cc(Oc2cccnc2)cc(C(=O)Nc2ccc(F)cn2)n1,4.1
19,Cc1cc(Oc2cccnc2)cc(C(=O)Nc2cc(F)ccn2)n1,26
20,Cc1ccc(Oc2cc(C)nc(C(=O)Nc3ccc(Cl)cn3)c2)cn1,635
21,Cc1cc(Oc2cccnc2)cc(C(=O)Nc2cc(C#N)ccn2)n1,> 10000
22,Cc1cc(Oc2cccnc2)cc(C(=O)Nc2cccc(F)n2)n1,3.4
23,Cc1cccc(NC(=O)c2cc(Oc3cccnc3)cc(C)n2)n1,4.4

row,Structure (SMILES),IC50 [nM]
1,Cc1ccc(Oc2cc(C)nc(C(=O)Nc3cccc(C)n3)c2)cn1,13
2,Cc1ccc(Oc2cc(C)nc(C(=O)Nc3cc(C#N)ccn3)c2)cn1,387
3,Cc1ccc(Oc2cc(C)nc(C(=O)Nc3ccc(F)c(C)n3)c2)cn1,328
4,Cc1cc(Oc2cncc(Cl)c2)cc(C(=O)Nc2cccc(F)n2)n1,5.3
5,Cc1ccc(NC(=O)c2cc(Oc3cncc(Cl)c3)cc(C)n2)nc1,6.4
6,Cc1cc(Oc2cncc(Cl)c2)cc(C(=O)Nc2cc(C#N)ccn2)n1,548
7,Cc1cccc(NC(=O)c2cc(Oc3cncc(Cl)c3)cc(C)n2)n1,6.7
8,Cc1cc(Oc2cccnc2)cc(C(=O)Nc2ccc(C#N)cn2)n1,14
9,Cc1cc(Oc2cccnc2)cc(C(=O)Nc2ccc(C(F)(F)F)cn2)n1,1110
10,Cc1ccc(Oc2cc(C)nc(C(=O)Nc3cccc(F)n3)c2)cn1,64
11,Cc1ccc(Oc2cc(C)nc(C(=O)Nc3cccc(Cl)n3)c2)cn1,172
12,Cc1ccc(Oc2cc(C)nc(C(=O)Nc3ccc(C#N)cn3)c2)cn1,693
13,Cc1ccc(Oc2cc(C)nc(C(=O)Nc3ccc(C(F)(F)F)cn3)c2)cn1,> 30000
14,Cc1cc(Oc2cncc(Cl)c2)cc(C(=O)Nc2ccc(Cl)cn2)n1,18
15,Cc1cc(Oc2cncc(Cl)c2)cc(C(=O)Nc2cccc(Cl)n2)n1,14
16,Cc1cc(Oc2cncc(Cl)c2)cc(C(=O)Nc2ccc(C#N)cn2)n1,11
17,Cc1cc(Oc2cncc(Cl)c2)cc(C(=O)Nc2ccc(F)c(C)n2)n1,14
18,CCc1cccc(NC(=O)c2cc(Oc3cncc(Cl)c3)cc(C)n2)n1,14
19,Cc1cc(Oc2cncc(Cl)c2)cc(C(=O)Nc2ccc(C(F)(F)F)cn2)n1,> 10000
20,CCc1cc(Oc2cncnc2)cc(C(=O)Nc2cccc(C)n2)n1,6.1
21,CCc1cc(Oc2cncc(F)c2)cc(C(=O)Nc2ccc(F)cn2)n1,11
22,CCc1cc(Oc2cncnc2)cc(C(=O)Nc2cccc(Cl)n2)n1,14
23,CCc1cc(Oc2cncc(F)c2)cc(C(=O)Nc2ccc(C)cn2)n1,41

row,Structure (SMILES),IC50 [nM]
1,CCc1cccc(NC(=O)c2cc(Oc3cncc(F)c3)cc(CC)n2)n1,468
2,CCc1cc(Oc2cncc(F)c2)cc(C(=O)Nc2cc(F)ccn2)n1,333
3,CCc1cc(Oc2cncc(F)c2)cc(C(=O)Nc2ccc(Cl)cn2)n1,333
4,CCc1cc(Oc2cncc(F)c2)cc(C(=O)Nc2cccc(Cl)n2)n1,59
5,CCc1cc(Oc2cncnc2)cc(C(=O)Nc2ccc(C#N)cn2)n1,156
6,CCc1cc(Oc2cncnc2)cc(C(=O)Nc2ccc(F)c(C)n2)n1,27
7,CCc1cc(Oc2cncnc2)cc(C(=O)Nc2cccc(F)n2)n1,24
8,CCc1cc(Oc2cncnc2)cc(C(=O)Nc2cc(C)c(F)cn2)n1,677
9,CCc1cc(Oc2cncc(F)c2)cc(C(=O)Nc2cccc(C)n2)n1,13
10,CCc1cc(Oc2cncc(F)c2)cc(C(=O)Nc2ccc(C#N)cn2)n1,108
11,CCc1cccc(NC(=O)c2cc(Oc3cncnc3)cc(CC)n2)n1,19
12,CCc1cc(Oc2cncc(F)c2)cc(C(=O)Nc2ccc(F)c(C)n2)n1,159
13,CCc1cc(Oc2cncnc2)cc(C(=O)Nc2ccc(F)cn2)n1,9.3
14,CCc1cc(Oc2cncnc2)cc(C(=O)Nc2ccc(C)cn2)n1,27
15,CCc1cc(Oc2cncc(F)c2)cc(C(=O)Nc2cc(C)c(F)cn2)n1,> 30000
16,CCc1cc(Oc2cncnc2)cc(C(=O)Nc2ccc(Cl)cn2)n1,25
17,CCc1cc(Oc2cncc(F)c2)cc(C(=O)Nc2cccc(F)n2)n1,18
18,Cc1cc(Oc2cncc(F)c2)cc(C(=O)Nc2cccc(Cl)n2)n1,8.2
19,CCc1cc(Oc2cncnc2)cc(C(=O)Nc2ccc(C(F)(F)F)cn2)n1,> 30000
20,CCc1cc(Oc2cncc(F)c2)cc(C(=O)Nc2ccc(C(F)(F)F)cn2)n1,> 30000
21,Cc1cc(Oc2cncc(Cl)c2)cc(C(=O)Nc2ccccn2)n1,2.2
22,Cc1ccc(NC(=O)c2cc(Oc3cncnc3)cc(C(F)F)n2)nc1,72
23,Cc1ccc(NC(=O)c2cc(Oc3cncc(F)c3)cc(C)n2)nc1,6.8

# System: not listed separately
# Assay: Cynomolgus monkey IV/PO pharmacokinetics
# Conditions: in vivo; Cynomolgus monkey IV/PO
Structure (SMILES),bioavailability [%],clearance [mL/min/kg],half-life [h]
Cc1cc(Oc2cncnc2)cc(C(=O)Nc2ccc(F)cn2)n1 [drawing 267],42 to 45,15.4,6.04
Cc1cc(Oc2cncc(F)c2)cc(C(=O)Nc2ccc(F)cn2)n1 [drawing 268],25 to 45,13.2,9.38

# Same assay, conditions: in vivo; Cynomolgus monkey IV/PO; read-out: Vss
row,Structure (SMILES),Vd [L/kg]
1,Cc1cc(Oc2cncnc2)cc(C(=O)Nc2ccc(F)cn2)n1 [drawing 267],2.5

# Same assay, conditions: in vivo; Cynomolgus monkey PO
Structure (SMILES),Cmax [nM],Tmax [h]
Cc1cc(Oc2cncnc2)cc(C(=O)Nc2ccc(F)cn2)n1 [drawing 267],858,3
Cc1cc(Oc2cncc(F)c2)cc(C(=O)Nc2ccc(F)cn2)n1 [drawing 268],1360,2

# System: not listed separately
# Assay: Rat IV/PO pharmacokinetics
# Conditions: in vivo; Rat IV/PO
# Text: Additional physicochemical and pharmacological data are provided below in Tables 2-4 for Test Compounds 1 and 2 (Compounds […] and (2) as described herein).
Structure (SMILES),bioavailability [%],clearance [mL/min/kg],half-life [h]
Cc1cc(Oc2cncnc2)cc(C(=O)Nc2ccc(F)cn2)n1 [drawing 265],30 to 76,19.2,0.47
Cc1cc(Oc2cncc(F)c2)cc(C(=O)Nc2ccc(F)cn2)n1 [drawing 266],67 to 75,9.15,4.7

# Same assay, conditions: in vivo; Rat IV/PO; read-out: Vss
row,Structure (SMILES),Vd [L/kg]
1,Cc1cc(Oc2cncnc2)cc(C(=O)Nc2ccc(F)cn2)n1 [drawing 265],1.78
2,Cc1cc(Oc2cncc(F)c2)cc(C(=O)Nc2ccc(F)cn2)n1 [drawing 266],1.89

# Same assay, conditions: in vivo; Rat PO
Structure (SMILES),Cmax [nM],Tmax [h]
Cc1cc(Oc2cncnc2)cc(C(=O)Nc2ccc(F)cn2)n1 [drawing 265],2170,0.5
Cc1cc(Oc2cncc(F)c2)cc(C(=O)Nc2ccc(F)cn2)n1 [drawing 266],3330,1.5
